Experimental data as given in US9808448B2, “Pharmaceutical compounds and use of same in cancer and tauopathies” (THE REGENTS OF THE UNIVERSITY OF MICHIGAN, priority 2013, dated 2017).

System: human 4R0N tau in HeLaC3 cells
Assay: Tau levels in HeLaC3 cells by Western blot
Type: cell-based
Procedure: To determine whether YM-08 might also accelerated tau degradation, HeLaC3 cells, which stably over-express human 4R0N tau, were treated with compound. After 24 hours, the levels of phosphorylated (p396/404) tau and total tau were measured by Western blot. […] This cellular activity is not as dramatic as that of MKT-077, which reduced tau levels by >80% at 30 μM (FIG. 4D); however, reducing tau by only about 50% is predicted to provide benefits in some AD models.

Q: How did the “anti-tau activity in cells” value turn out when CCn1c(=O)/c(=C2\Sc3ccccc3N2C)s/c1=C\c1ccccn1 [YM-08, (2Z,5E)-3-ethyl-5-(3-methylbenzo[d]thiazol-2(3H)-ylidene)-2-(pyridin-2-ylmethylene)thiazolidin-4-one] was run?
A: Its value is “reduced phospho (p396/404) and total tau”.

Q: What about the “decrease of pS396/404 tau level” value (30 μM, 24 hours) of the same compound?
A: Its value is “about 40%”.

Q: What about the “decrease of total tau level” value (30 μM, 24 hours) of the same compound?
A: The value was “about 60%”.
